Data: ChEMBL document CHEMBL5030512 (J Med Chem, 2021)
Activity calls are given as the source filed them. The rule behind the calls is not given here.

Key:
HT-29 [1] = test: Cytotoxicity against human HT-29 cells assessed as reduction in cell viability measured after 48 hrs in presence of 5 mM GSH by SRB assay; format: functional, cell-based; conditions: HT-29, 48 h
HT-29 [2] = test: Cytotoxicity against human HT-29 cells assessed as reduction in cell viability measured after 48 hrs by SRB assay; format: functional, cell-based; conditions: HT-29, 48 h
HCT-116 [3] = test: Cytotoxicity against human HCT-116 cells assessed as reduction in cell viability measured after 48 hrs in presence of 5 mM GSH by SRB assay; format: functional, cell-based; conditions: HCT-116, 48 h
HCT-116 [4] = test: Cytotoxicity against human HCT-116 cells assessed as reduction in cell viability measured after 48 hrs by SRB assay; format: functional, cell-based; conditions: HCT-116, 48 h
HCT-116 [5] = test: Cytotoxicity against human HCT-116 cells assessed as reduction in cell viability treated with 5 mM GSH measured after 48 hrs in presence of 5-FU by SRB assay; format: functional, cell-based; conditions: HCT-116, 48 h
COS-7 = test: Inhibition of GLUT1 in African green monkey COS-7 cells assessed as reduction in 2-NBDG uptake at 50 to 100 uM incubated for 90 mins by fluorescence microplate reader analysis; format: cell-based; conditions: Chlorocebus aethiops, dose 50-100 µM
HT-29 [6] = test: Cytotoxicity against human HT-29 cells assessed as reduction in cell viability measured after 48 hrs in presence of 5-FU by SRB assay; format: functional, cell-based; conditions: HT-29, 48 h
Colon cancer cell line [7] = test: Synergistic antitumour activity against human colorectal cancer cells xenografted in BALB/c mouse assessed as reduction in tumour size at 30 mg/kg, ip administered once every 3 days for 3 weeks in presence of 10 mg/kg 5-FU; format: functional, organism-based
HCT-116 [8] = test: Cytotoxicity against human HCT-116 cells assessed as reduction in cell viability measured after 48 hrs in presence of 5-FU by SRB assay; format: functional, cell-based; conditions: HCT-116, 48 h
HT-29 [9] = test: Cytotoxicity against human HT-29 cells assessed as reduction in cell viability treated with 5 mM GSH measured after 48 hrs in presence of 5-FU by SRB assay; format: functional, cell-based; conditions: HT-29, 48 h
[10] = Dissociation constant, pKa of compound; format: physicochemical
[11] = Stability of compound at pH >= 7; format: physicochemical
[12] = Stability of compound at pH 4 to 5; format: physicochemical; conditions: buffer
[13] = Stability in human plasma assessed as half life measured upto 48 hrs by RP-HPLC analysis; format: ADME, cell-free
[14] = Biodistribution in BALB/c mouse stomach at 9.5 mg/kg, ip measured after 1 hr; format: ADME, organism-based; conditions: in vivo
Colon cancer cell line [15] = test: Antitumour activity against human colorectal cancer cells xenografted in BALB/c mouse assessed as tumour suppression at 50 mg/kg, ip administered once every 3 days for 3 weeks; format: functional, organism-based
[16] = Biodistribution in BALB/c mouse kidney at 9.5 mg/kg, ip measured after 1 hr; format: ADME, organism-based; conditions: in vivo
[17] = Biodistribution in BALB/c mouse stomach at 50 mg/kg, ip measured after 1 hr; format: ADME, organism-based; conditions: in vivo
NHDF = test: Cytotoxicity against NHDF assessed as reduction in cell viability measured after 48 hrs by SRB assay; format: cell-based; conditions: Homo sapiens
[18] = Toxicity in BALB/c mouse xenografted with human colorectal cancer cells assessed as reduction in body weight at 50 mg/kg, ip administered once every 3 days for 3 weeks; format: organism-based; design: scale not given: the % may be the effect or the level left; conditions: in vivo, 504 h
[19] = Biodistribution in BALB/c mouse spleen at 9.5 mg/kg, ip measured after 1 hr; format: ADME, organism-based; conditions: in vivo
[20] = Biodistribution in BALB/c mouse colon at 50 mg/kg, ip measured after 1 hr; format: ADME, organism-based; conditions: in vivo
[21] = Biodistribution in BALB/c mouse heart at 50 mg/kg, ip measured after 1 hr; format: ADME, organism-based; conditions: in vivo
[22] = Drug metabolism in BALB/c mouse assessed as release of 5-FU in blood at 50 mg/kg, iv measured after 2 hrs by UPLC-MS/MS analysis; format: ADME, organism-based; conditions: in vivo
[23] = Drug uptake in BALB/c mouse blood at 50 mg/kg, iv measured after 30 mins by UPLC-MS/MS method; format: ADME, organism-based; conditions: in vivo, 0.5 h
[24] = Drug uptake in BALB/c mouse blood at 50 mg/kg, iv measured after 4 hrs by UPLC-MS/MS method; format: ADME, organism-based; conditions: in vivo
[25] = Biodistribution in BALB/c mouse colon assessed as 5-FU release at 50 mg/kg, ip measured after 1 hr; format: ADME, organism-based; conditions: in vivo
[26] = Drug metabolism in 5 mM GSH assessed as 5-FU release after 48 hrs; format: ADME
[27] = Biodistribution in BALB/c mouse stomach assessed as 5-FU release at 50 mg/kg, ip measured after 1 hr; format: ADME, organism-based; conditions: in vivo
[28] = Half life of the compound in 5 mM GSH; format: physicochemical
[29] = Drug uptake in BALB/c mouse blood at 50 mg/kg, iv measured after 45 mins by UPLC-MS/MS method; format: ADME, organism-based; conditions: in vivo, 0.75 h
[30] = Drug degradation in 5 uM GSH after 48 hrs; format: ADME; conditions: read-out: Drug degradation
[31] = Biodistribution in BALB/c mouse liver at 50 mg/kg, ip measured after 1 hr; format: ADME, organism-based; conditions: in vivo
[32] = Tmax in BALB/c mouse at 50 mg/kg, ip by LC-MS/MS analysis; format: ADME, organism-based; conditions: in vivo
[33] = Biodistribution in BALB/c mouse kidney assessed as 5-FU release at 50 mg/kg, ip measured after 1 hr; format: ADME, organism-based; conditions: in vivo

O=C(CCCCCN1C(=O)CC(SCCOCCOCCOc2cc(O)c(C(=O)CCc3ccc(O)cc3)c(O[C@@H]3O[C@H](CO)[C@@H](O)[C@H](O)[C@H]3O)c2)C1=O)OCn1cc(F)c(=O)[nH]c1=O (some centres not stated) gave an IC50 (HT-29 [1]) of 93.6 µM, an IC50 (HT-29 [2]) greater than 100 µM and an IC50 (HCT-116 [3]) greater than 100 µM. The IC50 (HCT-116 [4]) was 97.4 µM.

In the case of O=C(CCc1ccc(O)cc1)c1c(O)cc(OCCOCCOCCS)cc1O, the IC50 (HCT-116 [5]) is reported as 8.73 µM, the inhibition (COS-7) is reported as “inactive” and the IC50 (HT-29 [1]) is reported as 24.2 µM. The IC50 (HT-29 [6]) was 10.3 µM, the IC50 (HT-29 [2]) was 29.1 µM and the IC50 (HCT-116 [3]) was 15.9 µM. The Activity (Colon cancer cell line [7]) was “Active”, the IC50 (HCT-116 [8]) was 10.4 µM and the IC50 (HT-29 [9]) was 3.03 µM. For the same compound, the IC50 (HCT-116 [4]) was 15.5 µM.

In the case of O=C(CCCc1cn(CCOCCOCCOc2cc(O)c(C(=O)CCc3ccc(O)cc3)c(O)c2)nn1)OCn1cc(F)c(=O)[nH]c1=O, the IC50 (HT-29 [2]) is reported as 85 µM, the pKa [10] is reported as 8.5 and the Stability [11] is reported as “Unstable”. For the same compound, the Stability [12] was “Stable”, the IC50 (HCT-116 [4]) was greater than 100 µM and the half-life [13] was 3.6 h.

O=C(CCCSSCCOCCOCCOc1cc(O)c(C(=O)CCc2ccc(O)cc2)c(O[C@@H]2O[C@H](CO)[C@@H](O)[C@H](O)[C@H]2O)c1)OCn1cc(F)c(=O)[nH]c1=O showed an IC50 (HT-29 [1]) of 8 µM, an IC50 (HT-29 [2]) of 59.8 µM and an IC50 (HCT-116 [3]) of 23.8 µM. It also gave an IC50 (HCT-116 [4]) of 54.9 µM.

With O=C(CCCCCN1C(=O)CC(SCCOCCOCCOc2cc(O)c(C(=O)CCc3ccc(O)cc3)c(O)c2)C1=O)OCn1cc(F)c(=O)[nH]c1=O (configuration not stated) the IC50 (HT-29 [1]) was 86.9 µM, the IC50 (HT-29 [2]) was 43.7 µM and the IC50 (HCT-116 [3]) was 82.8 µM. It also gave a pKa [10] of 8.5, an IC50 (HCT-116 [4]) of 75 µM and a half-life [13] of 0.8 h.

With O=c1[nH]cc(F)c(=O)[nH]1 [FLUOROURACIL] the Drug uptake [14] was “Active”, the Activity (Colon cancer cell line [15]) was “Active” and the Drug uptake [16] was “Active”. The Drug uptake [17] was “Active”, the IC50 (NHDF) was 70.4 µM and the Activity [18] was 10%. The Drug uptake [19] was “Active”.

In the case of O=C(CCc1ccc(O)cc1)c1c(O)cc(OCCOCCOCCS)cc1O[C@@H]1O[C@H](CO)[C@@H](O)[C@H](O)[C@H]1O, the IC50 (HCT-116 [5]) is reported as 13.6 µM, the inhibition (COS-7) is reported as “inactive” and the IC50 (HT-29 [1]) is reported as greater than 100 µM. For the same compound, the IC50 (HT-29 [6]) was 21 µM, the IC50 (HT-29 [2]) was greater than 100 µM and the IC50 (HCT-116 [3]) was greater than 100 µM. The IC50 (HCT-116 [8]) was 21.9 µM, the IC50 (HT-29 [9]) was 8.58 µM and the IC50 (HCT-116 [4]) was greater than 100 µM.

Work on O=C(CCCc1cn(CCOCCOCCOc2cc(O)c(C(=O)CCc3ccc(O)cc3)c(O[C@@H]3O[C@H](CO)[C@@H](O)[C@H](O)[C@H]3O)c2)nn1)OCn1cc(F)c(=O)[nH]c1=O yielded an IC50 (HT-29 [2]) greater than 100 µM and an IC50 (HCT-116 [4]) greater than 100 µM.

For O=C(CCc1ccc(O)cc1)c1c(O)cc(O)cc1O[C@@H]1O[C@H](CO)[C@@H](O)[C@H](O)[C@H]1O, the inhibition (COS-7) was “inactive”.

For O=C(CCCSSCCOCCOCCOc1cc(O)c(C(=O)CCc2ccc(O)cc2)c(O)c1)OCn1cc(F)c(=O)[nH]c1=O, the Drug uptake [20] was “Active”, the Drug uptake [21] was “Active” and the Activity (Colon cancer cell line [15]) was “Active”. The IC50 (HT-29 [1]) was 3.8 µM, the Drug metabolism [22] was “Metabolite_Detected” and the Drug uptake [23] was “Not Active”. The IC50 (HT-29 [2]) was 19.6 µM, the IC50 (HCT-116 [3]) was 10.5 µM and the Drug uptake [24] was “Active”. For the same compound, the Drug uptake [25] was “Active”, the Drug uptake [17] was “Active” and the IC50 (NHDF) was 90 µM. The Drug metabolism [26] was “Dose-Dependent Effect”, the Drug uptake [27] was “Active” and the t1/2 [28] was 4 h. For the same compound, the Activity [18] was “Non-Toxic”, the Drug uptake [29] was “Active” and the degraded at 48 h [30] was 30%. The Drug uptake [31] was “Active”, the IC50 (HCT-116 [4]) was 21.2 µM and the Tmax [32] was 0.75 h. For the same compound, the half-life [13] was 13 h and the Drug uptake [33] was “Active”.
